Consider one compound from publication PMC12752606, “METTL10‐Mediated PIAS3 Methylation Links Purine Metabolism to Gastric Cancer Progression” (Advanced Science, 2025).

Experiment [1] concerns MITF ubiquitination in MKN45 and AGS cells. Nature of the experiment: Endogenous MITF ubiquitination and degradation in GC cells (IP and immunoblotting). In kind it is cell-based. The conditions noted are these: 20 µM, MG132 5 µM pretreatment. The method, then: Protein extraction from tissues or cells was performed by lysis buffer (20 mM Tris‐HCl (pH 7.5), 150 mM NaCl, 1 mM EDTA, 1 mM EGTA, 2.5 mM sodium pyrophosphate, 1 mM β‐glycerolphosphate, 1% Triton X‐100) supplemented with 1% phenylmethylsulfonyl fluoride (PMSF; Solarbio, P0100) and protease inhibitor cocktail (Apexbio, K1007) and lysed at 4 °C for 60 min, followed by centrifugation at 12000 g for 15 min at 4 °C. For Immunoblotting, the protein concentration was determined using the Pierce BCA Protein Assay Kit (Thermo Fisher Scientific, A55864). The protein samples were denatured by boiling in SDS‐PAGE loading buffer. For immunoprecipitation, antibodies were incubated with Dynabeads Protein G (Thermo, 10004D) at 4 °C for 4 h. The supernatant was then incubated with magnetic beads conjugated with antibodies or anti‐FLAG‐M2 magnetic beads (Sigma–Aldrich, M8823) at 4 °C overnight. Following incubation, the magnetic beads were washed three times with lysis buffer and then boiled in SDS‐PAGE loading buffer. […]
Plasmids were transfected into HEK293T cells for 24 h or into gastric cells for 36 h. […] After lysing the cells with lysis buffer, the samples were subjected to immunoprecipitation and analyzed by immunoblotting.
In general terms: Immunoblotting shows a protein as a band on a membrane.

The target in the next experiment is PRMT4 (Homo sapiens, UniProt Q86X55). In words: Off-target methyltransferase profiling (MTase-Glo). It counts as biochemical. Here is the method:
(§1) To evaluate the off‐target effects of LZQ‐02‐023‐01 on methyltransferase activity, a panel of enzymes was assessed using the MTase‐Glo Methyltransferase Assay (Promega), following the manufacturer's instructions. The assay was performed by ICE Bioscience Inc. Briefly, LZQ‐02‐023‐01 was serially diluted 4‐fold in DMSO to generate a 10‐point concentration gradient, and the resulting solutions were dispensed into 384‐well white assay plates using an Echo acoustic liquid handler (Labcyte). Plates were centrifuged at 1000 rpm for 1 min to ensure even compound distribution. Following a 10‐min preincubation at 25 °C, 2 µL of a substrate solution containing S‐adenosylmethionine (SAM) and the specific methyltransferase substrate (Table S7, Supporting Information) was added to each well. After a brief centrifugation, plates were incubated at 25 °C for 180 min to allow the enzymatic methylation reaction to proceed. Subsequently, 1 µL of MTase‐Glo reagent was added, followed by centrifugation and incubation at 25 °C for 45 min. Then, 5 µL of MTase‐Glo detection solution was introduced into each well, and the plates were incubated for an additional 45 min at 25 °C after centrifugation.
(§2) Luminescence signals were directly proportional to methyltransferase activity, were recorded using a microplate reader (BMG LABTECH). Percent inhibition was calculated by normalizing luminescence intensities of compound‐treated wells to DMSO‐treated controls, and IC50 values were calculated using GraphPad Prism 8 software.

The target in a further experiment is EZH2 [Y641N] (Homo sapiens, UniProt Q15910, Y641N). Nature of the experiment: Off-target methyltransferase profiling (MTase-Glo). In kind it is biochemical. The method, then: as §1, §2
The target in a further experiment is MLL3 (Homo sapiens, UniProt Q8NEZ4). Nature of the experiment: Off-target methyltransferase profiling (MTase-Glo). It counts as biochemical. Here is the method:
as §1, §2

The target of another experiment is SETD1B (Homo sapiens, UniProt Q9UPS6). Nature of the experiment: Off-target methyltransferase profiling (MTase-Glo). It counts as biochemical. The method, then: as §1, §2
The target of a further experiment is PRMT5 (Homo sapiens, UniProt O14744). In words: Off-target methyltransferase profiling (MTase-Glo). In kind it is biochemical. The method, then:
as §1, §2

In the next experiment the target is NSD2 (Homo sapiens, UniProt O96028). Nature of the experiment: Off-target methyltransferase profiling (MTase-Glo). It counts as biochemical. Here is the method: as §1, §2
A further experiment concerns the target SUV39H2 (Homo sapiens, UniProt Q9H5I1). In words: Off-target methyltransferase profiling (MTase-Glo). In kind it is biochemical. The method, then: as §1, §2
A further experiment deals with DOT1L (Homo sapiens, UniProt Q8TEK3). In words: Off-target methyltransferase profiling (MTase-Glo). It counts as biochemical. Here is the method: as §1, §2
For another experiment, the target named is SMYD2 (Homo sapiens, UniProt Q9NRG4). In words: Off-target methyltransferase profiling (MTase-Glo). It counts as biochemical. The method, then:
as §1, §2

The next experiment addresses EZH2 [A738T] (Homo sapiens, UniProt Q15910, A733T). In words: Off-target methyltransferase profiling (MTase-Glo). It counts as biochemical. Here is the method:
as §1, §2

A further experiment deals with NSD1 (Homo sapiens, UniProt Q96L73). Nature of the experiment: Off-target methyltransferase profiling (MTase-Glo). It counts as biochemical. Here is the method:
as §1, §2

The target in another experiment is EZH1 (Homo sapiens, UniProt Q92800). In words: Off-target methyltransferase profiling (MTase-Glo). In kind it is biochemical. The method, then: as §1, §2
Another experiment has as its target GLP (Homo sapiens, UniProt Q9H9B1). In words: Off-target methyltransferase profiling (MTase-Glo). In kind it is biochemical. The method, then: as §1, §2
In another experiment the target is SUV420H1 (Homo sapiens, UniProt Q4FZB7). In words: Off-target methyltransferase profiling (MTase-Glo). In kind it is biochemical. The method, then:
as §1, §2

The next experiment addresses METTL3/14 (Homo sapiens, UniProt Q86U44). In words: Off-target methyltransferase profiling (MTase-Glo). In kind it is biochemical. Here is the method:
as §1, §2

Another experiment deals with SUV39H1 (Homo sapiens, UniProt O43463). Nature of the experiment: Off-target methyltransferase profiling (MTase-Glo). It counts as biochemical. Here is the method: as §1, §2
Another experiment addresses SETD1A (Homo sapiens, UniProt O15047). Nature of the experiment: Off-target methyltransferase profiling (MTase-Glo). It counts as biochemical. Here is the method:
as §1, §2

The target of a further experiment is EZH2 [Y641H] (Homo sapiens, UniProt Q15910, Y641H). In words: Off-target methyltransferase profiling (MTase-Glo). It counts as biochemical. Here is the method:
as §1, §2

For a further experiment, the target named is NSD3 (Homo sapiens, UniProt Q9BZ95). Nature of the experiment: Off-target methyltransferase profiling (MTase-Glo). In kind it is biochemical. Here is the method: as §1, §2
The next experiment addresses PRMT8 (Homo sapiens, UniProt Q9NR22). In words: Off-target methyltransferase profiling (MTase-Glo). It counts as biochemical. Here is the method: as §1, §2
Experiment [2] concerns PIAS3-K442 methylation in MKN45 and AGS cells. In words: Immunoblotting of PIAS3-K442 methylation in GC cell lines. In kind it is cell-based. Particulars: 20 µM or higher, 24-hour treatment. The method, then:
Protein extraction from tissues or cells was performed by lysis buffer (20 mM Tris‐HCl (pH 7.5), 150 mM NaCl, 1 mM EDTA, 1 mM EGTA, 2.5 mM sodium pyrophosphate, 1 mM β‐glycerolphosphate, 1% Triton X‐100) supplemented with 1% phenylmethylsulfonyl fluoride (PMSF; Solarbio, P0100) and protease inhibitor cocktail (Apexbio, K1007) and lysed at 4 °C for 60 min, followed by centrifugation at 12000 g for 15 min at 4 °C. For Immunoblotting, the protein concentration was determined using the Pierce BCA Protein Assay Kit (Thermo Fisher Scientific, A55864). The protein samples were denatured by boiling in SDS‐PAGE loading buffer. For immunoprecipitation, antibodies were incubated with Dynabeads Protein G (Thermo, 10004D) at 4 °C for 4 h. The supernatant was then incubated with magnetic beads conjugated with antibodies or anti‐FLAG‐M2 magnetic beads (Sigma–Aldrich, M8823) at 4 °C overnight. Following incubation, the magnetic beads were washed three times with lysis buffer and then boiled in SDS‐PAGE loading buffer. The proteins were separated by sodium dodecyl sulfate polyacrylamide gel electrophoresis (SDS‐PAGE) with One‐Step PAGE Gel Fast Preparation Kit (Vazyme), and then transferred to the PVDF Membrane (Bio‐Rad). After blocking with a protein‐free rapid blocking buffer (Epizyme, PS108P) for 15 min, the membranes were incubated with primary antibodies at 4 °C overnight. […]

Sequence of GLP (Q9H9B1 whole entry): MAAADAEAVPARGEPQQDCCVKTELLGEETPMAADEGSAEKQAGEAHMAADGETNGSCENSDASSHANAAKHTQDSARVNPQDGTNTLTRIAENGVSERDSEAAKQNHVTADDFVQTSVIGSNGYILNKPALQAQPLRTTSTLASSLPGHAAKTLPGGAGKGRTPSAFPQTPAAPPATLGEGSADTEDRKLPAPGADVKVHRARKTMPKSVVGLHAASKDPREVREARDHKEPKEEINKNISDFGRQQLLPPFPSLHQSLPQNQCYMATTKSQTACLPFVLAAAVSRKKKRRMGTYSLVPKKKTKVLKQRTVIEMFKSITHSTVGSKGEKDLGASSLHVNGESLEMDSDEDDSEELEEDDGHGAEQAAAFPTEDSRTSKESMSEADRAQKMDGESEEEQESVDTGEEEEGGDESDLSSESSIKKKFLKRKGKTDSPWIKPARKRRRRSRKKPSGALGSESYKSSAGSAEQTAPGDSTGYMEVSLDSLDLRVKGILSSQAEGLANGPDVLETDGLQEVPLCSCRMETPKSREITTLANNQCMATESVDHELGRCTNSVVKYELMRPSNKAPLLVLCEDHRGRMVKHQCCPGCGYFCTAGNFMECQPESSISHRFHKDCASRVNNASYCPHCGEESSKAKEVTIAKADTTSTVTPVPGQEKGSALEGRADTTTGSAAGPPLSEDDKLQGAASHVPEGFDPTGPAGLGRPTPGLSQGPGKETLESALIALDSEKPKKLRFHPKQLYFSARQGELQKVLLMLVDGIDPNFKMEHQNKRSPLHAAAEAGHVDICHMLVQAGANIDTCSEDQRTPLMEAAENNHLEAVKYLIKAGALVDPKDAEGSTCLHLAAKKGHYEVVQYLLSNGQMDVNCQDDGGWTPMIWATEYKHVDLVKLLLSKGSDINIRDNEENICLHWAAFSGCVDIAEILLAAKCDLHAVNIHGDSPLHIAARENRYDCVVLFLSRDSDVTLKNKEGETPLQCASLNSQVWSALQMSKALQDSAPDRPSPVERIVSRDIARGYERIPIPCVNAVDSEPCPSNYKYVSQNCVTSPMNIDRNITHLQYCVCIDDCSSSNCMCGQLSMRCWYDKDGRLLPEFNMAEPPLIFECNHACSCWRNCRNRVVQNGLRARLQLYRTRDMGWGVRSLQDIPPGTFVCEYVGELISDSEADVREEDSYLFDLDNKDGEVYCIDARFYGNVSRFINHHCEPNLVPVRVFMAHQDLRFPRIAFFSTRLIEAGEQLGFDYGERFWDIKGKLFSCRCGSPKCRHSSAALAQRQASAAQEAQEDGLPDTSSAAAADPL
Sequence of PRMT8 (Q9NR22 whole entry, species assumed): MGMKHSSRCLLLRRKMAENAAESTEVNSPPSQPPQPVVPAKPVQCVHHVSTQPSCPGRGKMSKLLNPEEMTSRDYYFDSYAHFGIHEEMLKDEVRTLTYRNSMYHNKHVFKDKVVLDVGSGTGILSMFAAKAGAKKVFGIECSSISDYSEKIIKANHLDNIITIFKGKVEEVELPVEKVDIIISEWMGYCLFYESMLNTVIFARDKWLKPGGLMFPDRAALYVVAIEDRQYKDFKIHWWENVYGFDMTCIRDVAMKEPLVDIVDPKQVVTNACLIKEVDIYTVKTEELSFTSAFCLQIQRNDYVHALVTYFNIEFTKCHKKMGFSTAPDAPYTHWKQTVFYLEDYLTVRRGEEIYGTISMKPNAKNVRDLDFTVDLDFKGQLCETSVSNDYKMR
Sequence of NSD1 (Q96L73 whole entry, species assumed): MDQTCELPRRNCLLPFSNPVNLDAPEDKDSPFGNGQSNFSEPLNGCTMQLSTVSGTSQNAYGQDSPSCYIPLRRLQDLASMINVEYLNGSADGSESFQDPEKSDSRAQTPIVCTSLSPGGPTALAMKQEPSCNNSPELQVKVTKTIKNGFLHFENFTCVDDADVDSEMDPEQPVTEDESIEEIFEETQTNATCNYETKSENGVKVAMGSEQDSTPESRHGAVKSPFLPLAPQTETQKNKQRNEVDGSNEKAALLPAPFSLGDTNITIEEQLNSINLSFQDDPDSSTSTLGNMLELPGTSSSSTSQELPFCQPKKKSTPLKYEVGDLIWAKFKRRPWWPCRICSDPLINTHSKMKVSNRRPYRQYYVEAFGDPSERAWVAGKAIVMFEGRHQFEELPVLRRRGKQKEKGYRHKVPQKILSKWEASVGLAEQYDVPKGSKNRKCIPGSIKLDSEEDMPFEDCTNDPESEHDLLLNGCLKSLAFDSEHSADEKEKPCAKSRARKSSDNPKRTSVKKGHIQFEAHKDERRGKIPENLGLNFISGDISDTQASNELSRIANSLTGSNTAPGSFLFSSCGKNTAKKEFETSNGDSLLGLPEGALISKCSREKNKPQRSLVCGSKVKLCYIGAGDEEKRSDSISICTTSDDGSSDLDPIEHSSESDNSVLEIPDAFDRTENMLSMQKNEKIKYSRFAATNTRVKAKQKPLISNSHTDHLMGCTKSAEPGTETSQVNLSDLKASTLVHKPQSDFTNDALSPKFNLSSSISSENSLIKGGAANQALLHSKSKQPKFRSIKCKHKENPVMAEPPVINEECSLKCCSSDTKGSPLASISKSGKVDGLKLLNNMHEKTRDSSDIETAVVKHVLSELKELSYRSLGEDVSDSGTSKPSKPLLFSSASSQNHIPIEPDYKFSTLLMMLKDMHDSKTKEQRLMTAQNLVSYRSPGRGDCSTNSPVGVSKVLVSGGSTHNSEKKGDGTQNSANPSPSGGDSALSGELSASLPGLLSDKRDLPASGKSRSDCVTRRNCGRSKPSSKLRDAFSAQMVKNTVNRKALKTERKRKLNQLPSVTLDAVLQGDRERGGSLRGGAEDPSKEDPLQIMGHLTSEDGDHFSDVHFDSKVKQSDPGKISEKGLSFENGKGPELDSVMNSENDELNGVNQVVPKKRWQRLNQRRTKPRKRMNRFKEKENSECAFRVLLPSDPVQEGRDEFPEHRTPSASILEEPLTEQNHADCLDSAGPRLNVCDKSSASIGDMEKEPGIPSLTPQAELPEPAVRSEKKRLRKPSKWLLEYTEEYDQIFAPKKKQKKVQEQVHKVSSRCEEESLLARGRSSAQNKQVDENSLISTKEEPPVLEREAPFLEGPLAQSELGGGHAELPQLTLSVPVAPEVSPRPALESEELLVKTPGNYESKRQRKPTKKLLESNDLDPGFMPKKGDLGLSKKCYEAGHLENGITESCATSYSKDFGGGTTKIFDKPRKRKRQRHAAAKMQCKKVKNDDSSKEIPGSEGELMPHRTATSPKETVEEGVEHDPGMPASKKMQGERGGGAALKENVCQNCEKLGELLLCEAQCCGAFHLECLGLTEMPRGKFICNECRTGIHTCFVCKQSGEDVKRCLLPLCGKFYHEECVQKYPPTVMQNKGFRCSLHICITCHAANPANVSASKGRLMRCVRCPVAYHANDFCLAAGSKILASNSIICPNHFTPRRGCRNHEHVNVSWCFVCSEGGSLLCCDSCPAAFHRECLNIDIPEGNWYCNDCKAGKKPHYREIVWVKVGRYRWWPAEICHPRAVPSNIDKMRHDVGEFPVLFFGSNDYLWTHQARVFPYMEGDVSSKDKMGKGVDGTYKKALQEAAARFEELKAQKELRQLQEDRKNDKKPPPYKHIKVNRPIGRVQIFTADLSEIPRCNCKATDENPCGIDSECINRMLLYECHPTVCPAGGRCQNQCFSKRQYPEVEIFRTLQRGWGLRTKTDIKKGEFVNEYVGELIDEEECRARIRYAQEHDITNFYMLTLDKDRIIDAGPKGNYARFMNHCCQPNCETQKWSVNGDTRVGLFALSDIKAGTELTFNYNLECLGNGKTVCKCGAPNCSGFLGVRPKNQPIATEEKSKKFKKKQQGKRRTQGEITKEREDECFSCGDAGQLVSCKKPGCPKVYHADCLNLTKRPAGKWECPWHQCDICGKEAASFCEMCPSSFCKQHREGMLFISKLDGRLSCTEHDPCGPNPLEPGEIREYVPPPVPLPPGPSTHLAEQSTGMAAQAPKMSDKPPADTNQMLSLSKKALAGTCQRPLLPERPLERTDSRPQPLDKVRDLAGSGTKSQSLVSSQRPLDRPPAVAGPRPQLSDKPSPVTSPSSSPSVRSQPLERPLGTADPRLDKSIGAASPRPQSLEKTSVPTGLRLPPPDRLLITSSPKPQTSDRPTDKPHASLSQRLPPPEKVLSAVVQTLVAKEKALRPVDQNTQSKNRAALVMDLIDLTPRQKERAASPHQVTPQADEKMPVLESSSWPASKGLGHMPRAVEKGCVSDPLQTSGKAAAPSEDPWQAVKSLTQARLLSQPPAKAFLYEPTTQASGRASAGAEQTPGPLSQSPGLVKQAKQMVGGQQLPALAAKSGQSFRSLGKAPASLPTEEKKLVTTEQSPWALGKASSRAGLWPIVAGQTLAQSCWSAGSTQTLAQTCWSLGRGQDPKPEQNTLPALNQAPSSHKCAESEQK
Sequence of PRMT4 (Q86X55 whole entry, species assumed): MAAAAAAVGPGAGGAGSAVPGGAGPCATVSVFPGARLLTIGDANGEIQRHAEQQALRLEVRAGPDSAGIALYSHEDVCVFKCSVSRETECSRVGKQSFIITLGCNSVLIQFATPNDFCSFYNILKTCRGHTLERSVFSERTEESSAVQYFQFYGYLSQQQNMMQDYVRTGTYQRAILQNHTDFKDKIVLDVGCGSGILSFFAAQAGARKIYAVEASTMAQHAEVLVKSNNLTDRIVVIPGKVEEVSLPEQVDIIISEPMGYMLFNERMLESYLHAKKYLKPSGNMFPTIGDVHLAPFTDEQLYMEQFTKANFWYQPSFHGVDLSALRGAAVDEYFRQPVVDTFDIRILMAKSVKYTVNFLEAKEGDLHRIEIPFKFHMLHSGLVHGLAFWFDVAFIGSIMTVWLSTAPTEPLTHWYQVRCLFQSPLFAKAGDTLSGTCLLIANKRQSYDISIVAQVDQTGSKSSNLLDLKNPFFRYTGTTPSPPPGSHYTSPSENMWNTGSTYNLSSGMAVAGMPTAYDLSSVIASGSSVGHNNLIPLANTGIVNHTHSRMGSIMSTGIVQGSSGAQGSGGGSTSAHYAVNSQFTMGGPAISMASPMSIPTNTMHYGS

In general, IC50 refers to the midpoint of a concentration-inhibition curve. For the compound `Cc1ccc(Nc2ncc3c(n2)N(C)C(=O)N(c2cccc(N)c2)C3)cn1` [LZQ-02-023-01, Three‐(3‐aminophenyl)‐1‐methyl‐7‐((6‐methylpyridin‐3‐yl)amino)‐3,4‐dihydropyrimido [4,5‐d] pyrimidin‐2 (1H)‐one], the “PIAS3-mediated ubiquitination and degradation of MITF, GC cells” value in experiment [1] was “significantly promoted”. Further, the IC50 was 19.2 µM against PRMT4; 12.4 µM against EZH2 [Y641N]; 9.47 µM at MLL3; 8.97 µM against SETD1B; 13 µM at PRMT5; 9.53 µM against NSD2. Moreover, the IC50 came to 11 µM against SUV39H2; 13.1 µM at DOT1L; 9.07 µM at SMYD2; 7.47 µM on EZH2 [A738T]; 13.3 µM on NSD1; 28.9 µM on EZH1. The IC50 on GLP turned out to be 23.9 µM; against SUV420H1, 13.3 µM; at METTL3/14, 16.8 µM; at SUV39H1, 18.6 µM; against SETD1A, 18.8 µM; against EZH2 [Y641H] it was 3.46 µM. Also, the IC50 was 7.36 µM against NSD3 and 26.9 µM against PRMT8. Besides, the “Methylation of PIAS3-K442 in GC cell lines” value in [2] was “decreased”.
